# Experimental data from US5808049A, “Stereospecific 5-fu esters and methods for preparing same” (Director-General of Agency of Industrial Science and …, priority 1994, dated 1998).
# Tests used:
# in vitro [1] = details: human, u937 cells, pH 7.5
# Method: (§1) Each of the reaction mixtures was prepared by dissolving 1 mg of the ester in 10 μl of ethanol, and by mixing with it, 90 μl of a 0.1M phosphoric acid buffer (having a pH of 7.5), plus one of the following: 100 μl of a cell suspension, or 20 or 30 μl of whole blood, or 50 μl of tissue homogenate. […] The cells numbers in 100 μl of the cell suspension used in the reaction were as follows: rat liver cancer cells Anr4=7×10^6 ; rat pancreas cancer cells ARIP=8×10^6 ; rat sarcoma cells XC=5×10^6 ; human histiocytic leukemia cells U937=1×10^7 ; human pancreas cancer cells MIA PaCa-2=8×10^6 ; and human intestinum crassum cancer cells Colo 320=1×10^7. Fifty μl of the tissue homogenate corresponded to 20 mg of wet tissue.
# (§2) Each of these reaction mixtures was stirred for 12 hours at 30° C. by a magnetic stirrer; then 1.5 μl of 2N HCl was added, to bring the pH to about 2.5, and extraction with 1 ml of ethyl acetate in the presence of a saturated sodium chloride was carried out twice. The ethyl acetate layers of each sample were combined, the volume was adjusted to precisely 2 ml, and it was divided into 1.7 ml and 0.3 ml. The former was concentrated under reduced pressure, and the contained produced carboxylic acid was isolated by thin-layer preparative chromatography. A solution of diazomethane in ether was added to it, to methylate it, and the absolute configuration and the optical purity of the methylated product were determined by high-performance liquid chromatography using a chiral column. The latter 0.3 ml was directly methylated, and then it was concentrated and adjusted to 0.3 ml again, and the methyl ester of the contained produced carboxylic acid was determined quantitatively by gas chromatography, from which the hydrolyzed rate was determined. The column used in the high-performance liquid chromatography was a Chiralcell OJ or OD column (trade name; 4.6×250 mm) manufactured by Daicel; the elution was carried out by using a 10% 2-propanol/hexane mixture; and the flow velocity was 1 or 0.75 ml/min. The column used in the gas chromatography was a capillary column of OV-1 (0.25 mm×25 m), and the analysis temperature was 120° to 180° C.
# [2] = system: rat pancreas cancer cells ARIP; experiment: Stereoselective hydrolysis of anticancer agent esters with rat pancreas cancer cells ARIP; details: ARIP; 12 hours at 30° C., pH 7.5
# Method: as §1, §2
# [3] = Stereoselective hydrolysis of anticancer agent esters with rat whole blood; details: pH 7.5; for enantiomer excess of the carboxylic acid produced by the hydrolysis: rat whole blood, 12 hours at 30° C.
# Method: as §1, §2
# [4] = Stereoselective hydrolysis of anticancer agent esters with normal rat liver homogenate; details: 12 hours at 30° C., pH 7.5
# in vitro [5] = details: rat, xc cells, pH 7.5
# Method: as §1, §2
# in vitro [6] = details: human, blood, pH 7.5
# Method: as §1, §2
# [7] = Stereoselective hydrolysis of anticancer agent esters with human whole blood; details: pH 7.5; for enantiomer excess of the carboxylic acid produced by the hydrolysis: human whole blood, 12 hours at 30° C.
# Method: as §1, §2
# rat sarcoma cells XC = experiment: Stereoselective hydrolysis of anticancer agent esters with rat sarcoma cells XC; details: XC; 12 hours at 30° C., pH 7.5
# Method: as §1, §2
# [8] = Stereoselective hydrolysis of anticancer agent esters with normal rat pancreas homogenate; details: 12 hours at 30° C., pH 7.5
# Method: as §1, §2
# in vitro [9] = details: rat, arip cells, pH 7.5
# Method: as §1, §2
# [10] = system: human histiocytic leukemia cells U937; experiment: Stereoselective hydrolysis of anticancer agent esters with human histiocytic leukemia cells U937; details: U937; 12 hours at 30° C., pH 7.5
# Method: as §1, §2
# [11] = Stereoselective hydrolysis of anticancer agent esters with normal rat muscle homogenate; details: 12 hours at 30° C., pH 7.5
# [12] = system: rat liver cancer cells Anr4; experiment: Stereoselective hydrolysis of anticancer agent esters with rat liver cancer cells Anr4; details: Anr4; 12 hours at 30° C., pH 7.5
# Method: as §1, §2
# in vitro [13] = details: human, colo 320 cells, pH 7.5
# Method: as §1, §2
# in vitro [14] = details: rat, blood, pH 7.5
# Method: as §1, §2
# [15] = system: human pancreas cancer cells MIA PaCa-2; experiment: Stereoselective hydrolysis of anticancer agent esters with human pancreas cancer cells MIA PaCa-2; details: MIA PaCa-2; 12 hours at 30° C., pH 7.5
# Method: as §1, §2
# in vitro [16] = details: human, mia paca-2 cells, pH 7.5
# Method: as §1, §2
# in vitro [17] = details: rat, anr4 cells, pH 7.5
# Method: as §1, §2
# [18] = system: human intestinum crassum cancer cells Colo 320; experiment: Stereoselective hydrolysis of anticancer agent esters with human intestinum crassum cancer cells Colo 320; details: Colo320; 12 hours at 30° C., pH 7.5
# Method: as §1, §2
# [19] = Stereoselective hydrolysis of anticancer agent esters with rat pancreas cancer cells ARIP; details: rat, arip cells, pH 7.5
# Method: as §1, §2
# [20] = Stereoselective hydrolysis of anticancer agent esters with rat sarcoma cells XC; details: rat, xc cells, pH 7.5
# Method: as §1, §2
# [21] = Stereoselective hydrolysis of anticancer agent esters with human histiocytic leukemia cells U937; details: human, u937 cells, pH 7.5
# Method: as §1, §2
# [22] = Stereoselective hydrolysis of anticancer agent esters with rat liver cancer cells Anr4; details: rat, anr4 cells, pH 7.5
# Method: as §1, §2
# [23] = Stereoselective hydrolysis of anticancer agent esters with human pancreas cancer cells MIA PaCa-2; details: human, mia paca-2 cells, pH 7.5
# Method: as §1, §2
# [24] = Stereoselective hydrolysis of anticancer agent esters with human intestinum crassum cancer cells Colo 320; details: human, colo 320 cells, pH 7.5
# Method: as §1, §2
SMILES,enantiomer excess of the carboxylic acid produced by the hydrolysis [2],enantiomer excess of the carboxylic acid produced by the hydrolysis [3],enantiomer excess of the carboxylic acid produced by the hydrolysis [4],enantiomer excess of the carboxylic acid produced by the hydrolysis [7],enantiomer excess of the carboxylic acid produced by the hydrolysis (rat sarcoma cells XC),enantiomer excess of the carboxylic acid produced by the hydrolysis [8],enantiomer excess of the carboxylic acid produced by the hydrolysis [10],enantiomer excess of the carboxylic acid produced by the hydrolysis [11],enantiomer excess of the carboxylic acid produced by the hydrolysis [12],enantiomer excess of the carboxylic acid produced by the hydrolysis [15],enantiomer excess of the carboxylic acid produced by the hydrolysis [18],also measured
"O=C(Oc1ccc(N(CCCl)CCCl)cc1)C(Cc1ccccc1)NC(=O)C(F)(F)F (racemic) [Ic, (±)-4-bis(2-chloroethyl)aminophenyl 2-trifluoroacetamido-3-phenylpropionate]",83.0 % e.e.,18.3 % e.e.,93.2 % e.e.,23.7 % e.e.,77.9 % e.e.,> 99 % e.e.,> 99 % e.e.,72.4 % e.e.,94.9 % e.e.,2.6 % e.e.,35.9 % e.e.,metabolised at 12 h (in vitro [1]): 9.6%; metabolised at 12 h (in vitro [5]): 10.6%; metabolised at 12 h (in vitro [6]): 8%; metabolised at 12 h (in vitro [9]): 14.6%; metabolised at 12 h (in vitro [13]): 2.4%; metabolised at 12 h (in vitro [14]): 18.2%; metabolised at 12 h (in vitro [16]): 7.2%; metabolised at 12 h (in vitro [17]): 0.6%
"O=C(OC[C@H]1O[C@@H](n2cc(F)c(=O)[nH]c2=O)[C@H](O)[C@@H]1O)C(Cc1ccccc1)NC(=O)C(F)(F)F (stereo partly drawn) [IIc, 5'-(RS)-(2-trifluoroacetamido-3-phenylpropionyl)-5-fluorouridine]",> 99 % e.e.,41.8 % e.e.,> 99 % e.e.,66.9 % e.e.,> 99 % e.e.,> 99 % e.e.,57.8 % e.e.,87.8 % e.e.,98.4 % e.e.,19.0 % e.e.,64.6 % e.e.,"metabolised at 12 h [19]: 1.9%; metabolised at 12 h ([3]; rat, whole blood): 16.3%; metabolised at 12 h ([7]; human, whole blood): 36.1%; metabolised at 12 h [20]: 3.4%; metabolised at 12 h [21]: 12.6%; metabolised at 12 h [22]: 7.8%; metabolised at 12 h [23]: 20.6%; metabolised at 12 h [24]: 13.8%"
